The results in this text go back to publication PMC13250552 (Proceedings of the National Academy of Sciences of the …, 2026).

The test system of experiment [1] is SiHa cells. The format is cell-based. The following applies: 24 hours.
Another experiment deals with RPE-1 cells. The format is cell-based. The following applies: p53 wild-type, HPV-negative.
The next experiment deals with SiHa-C51S cells. The experiment is classed as cell-based. The conditions noted are these: 24 hours.
In another experiment the test system is UM-SCC-104. Briefly: Immunoblot of p53 and p21 in UM-SCC-104 cells. The following applies: 24 hours. The format is cell-based, human. (Immunoblotting shows a protein as a band on a membrane.)
Experiment [2] concerns SiHa cells. Description: Senescence SA-β-gal assay, SiHa. The experiment is classed as cell-based, human. The conditions noted are these: 48 h, KTI-240 3 μM, etoposide 2 μM.
The next experiment has as its system C51S cells. The format is cell-based. The following applies: 48 h, KTI-240 3 μM, etoposide 2 μM.

In the case of `COc1cc([C@@H]2c3cc4c(cc3[C@@H](O[C@@H]3O[C@@H]5CO[C@@H](C)O[C@H]5[C@H](O)[C@H]3O)[C@H]3COC(=O)[C@H]23)OCO4)cc(OC)c1O` [etoposide], the entries for the “p53 protein levels (Western blot)” value in the experiment with SiHa cells [1], with RPE-1 cells and in the experiment on SiHa-C51S cells were “induced p53 in both cell lines”, “induced p53 in both cell lines” and “etoposide did”, respectively. The “p53 protein (immunoblot)” value with UM-SCC-104 was “did not induce p53”. For the same molecule, the SA-β-gal senescence marker result in the experiment with SiHa cells [2] and in the experiment with C51S cells was “induced” each time.
